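Values below derive from 48-hour exposures of cells grown in 96-well plates, with endpoints linearly interpolated between the two concentrations bracketing the appropriate inhibition level. GI50 = concentration required for 50% inhibition of growth.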 Activity calls are given as the source filed them. No stated cut-off is given here; in the data, active = GI50 up to about 1.1 µM and inactive = higher.
What was measured:
Experiment in all cases: NCI-60 cell line screen, 48 h
BT-549 = test system: BT-549
MDA-MB-435 = test system: MDA-MB-435
DU-145 = test system: DU-145
Hs-578T = test system: Hs-578T
MDA-N = test system: MDA-N
786-0 = test system: 786-0
MDA-MB-231 = test system: MDA-MB-231
M19-MEL = test system: M19-MEL
RXF 631 = test system: RXF 631

Structure (SMILES) | GI50 (BT-549) | GI50 (MDA-MB-435) | GI50 (DU-145) | GI50 (Hs-578T) | GI50 (MDA-N) | GI50 (786-0) | GI50 (MDA-MB-231) | GI50 (M19-MEL) | GI50 (RXF 631)
COC(=O)C#Cc1cccc(OC)c1OC | 62.2 µM (inactive) | 33.7 µM (inactive) | 88.1 µM (inactive) | 37.3 µM (inactive) | 40.7 µM (inactive) | 43.8 µM (inactive) | 62.8 µM (inactive) | – | –
COc1nc(Cl)c(Cl)c(Cl)n1.COc1nc(Cl)nc(Cl)c1Cl | 9.93 µM (inactive) | 2.97 µM (inactive) | 2.35 µM (inactive) | 3.91 µM (inactive) | – | 14.2 µM (inactive) | 17.2 µM (inactive) | – | –
O=c1c(Cc2c(O)oc3cc(O)ccc3c2=O)c(O)oc2cc(O)ccc12 | > 100 µM (inactive) | > 100 µM (inactive) | > 100 µM (inactive) | 94.4 µM (inactive) | > 100 µM (inactive) | – | > 100 µM (inactive) | – | –
OCCNCN(CNCCO)c1nc(N(CNCCO)CNCCO)nc(N(CNCCO)CNCCO)n1 | – | – | – | – | – | – | – | 0.0405 µM (active) | –
CC1(C)C(O)C[C@@H](O)[C@@]2(C)C1CC[C@]1(C)C2C[C@@H](O)[C@@H]2C([C@@]3(C)CC[C@@H](C(C)(C)O)O3)CCC21C (stereo not given in full) | – | – | – | – | – | 15.3 µM (inactive) | – | – | –
CCCCCCCCCCOC(=O)NCCC | – | – | – | – | – | 28.1 µM (inactive) | – | 34.5 µM (inactive) | 27.6 µM (inactive)
Nc1nc(SCCNC(=O)CCc2ccc(O)c(I)c2)nc2c1ncn2C1OC(CO)C(O)C1O (stereo not given) | – | – | – | – | – | – | – | > 100 µM (inactive) | –
CC(=O)NC1=C[C@@H]([C@H]2COC(C)(C)O2)OC1=O | – | – | – | – | – | – | – | > 100 µM (inactive) | –
CCOC(=O)c1csc(NC(=O)CCN(CC)CC)n1 | – | 38.3 µM (inactive) | 40.2 µM (inactive) | – | 45.5 µM (inactive) | – | 50.5 µM (inactive) | – | –
